We go through 18 compounds from paper PMC11085448 (Molecules, 2024).

Several values for one entry are separate records, joined by “and”; a condition that tells them apart may be missing. Equal values may be shown once. Bounds are passed on as bounds.

Assay [1] has as its target T1, human κ-opioid receptor (OPRK1) (Homo sapiens, UniProt P41145). The assay can be described thus: forskolin-induced cAMP accumulation assay, KOR antagonist. A general note: Changes in cAMP serve as a functional read-out for many G protein-coupled receptors.
Assay [2] has as its target T2, human μ-opioid receptor (OPRM1) (Homo sapiens, UniProt P35372).
T2 construct: host or cells: cAMP Hunter CHO-K1 (Chinese hamster ovary) cells
The assay can be described thus: cell-based. The conditions noted are these: for EC50: MOR Agonist EC50 ± SEM; for Emax: read-out: MOR Agonist %Emax ± SEM.

Assay [3] concerns the target T3, human δ-opioid receptor (OPRD1) (Homo sapiens, UniProt P41143). The assay can be described thus: forskolin-induced cAMP accumulation assay, DOR agonist. To be noted: for Emax: CHO-K1, read-out: DOR Agonist %Emax ± SEM, CHO-K1 cells expressing human DOR; for EC50: DOR Agonist EC50 ± SEM, inhibition of forskolin-induced cAMP accumulation.
For assay [4], the target named is T1, human κ-opioid receptor (OPRK1). The assay can be described thus: forskolin-induced cAMP accumulation assay, KOR agonist. To be noted: for EC50: KOR Agonist EC50 ± SEM, inhibition of forskolin-induced cAMP accumulation, CHO-K1 cells expressing human KOR; for Emax: CHO-K1, read-out: KOR Agonist %Emax ± SEM, CHO-K1 cells expressing human KOR, normalized to the forskolin control.

In assay [5] the target is T3, human δ-opioid receptor (OPRD1). The assay can be described thus: forskolin-induced cAMP accumulation assay, DOR antagonist. Also on record: host or cells: cAMP Hunter CHO-K1 (Chinese hamster ovary) cells. It is filed as cell-based. To be noted: for DOR Antagonist %Imax ± SEM: CHO-K1 human DOR, versus EC50 of SNC80, Imax normalized to naltrexone.
Where [6] appears, read: normalized to the forskolin control.
[7] abbreviates: CHO-K1 cells expressing human DOR.

The IC50 is the concentration at which inhibition is half-maximal. Read a low IC50 as inhibition by little substance. A word on the EC50: it is the concentration at which the effect is half-maximal. Low readings indicate a more potent agent, high ones a less potent agent. For orientation: Emax means the greatest response seen or fitted, relative to the assay's reference.

T2 sequence (P35372 whole entry): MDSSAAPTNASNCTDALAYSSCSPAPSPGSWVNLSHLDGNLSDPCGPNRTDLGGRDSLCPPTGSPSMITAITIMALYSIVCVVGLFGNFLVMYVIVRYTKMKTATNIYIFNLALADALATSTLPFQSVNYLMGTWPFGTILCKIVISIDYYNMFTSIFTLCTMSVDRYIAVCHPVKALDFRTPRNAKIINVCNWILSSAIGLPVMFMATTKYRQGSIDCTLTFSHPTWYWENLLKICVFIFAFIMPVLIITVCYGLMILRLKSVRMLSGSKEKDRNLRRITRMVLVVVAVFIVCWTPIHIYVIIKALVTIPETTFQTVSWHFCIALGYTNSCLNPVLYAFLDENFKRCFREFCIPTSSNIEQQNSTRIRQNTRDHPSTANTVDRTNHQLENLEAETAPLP
T3 sequence (P41143 whole entry): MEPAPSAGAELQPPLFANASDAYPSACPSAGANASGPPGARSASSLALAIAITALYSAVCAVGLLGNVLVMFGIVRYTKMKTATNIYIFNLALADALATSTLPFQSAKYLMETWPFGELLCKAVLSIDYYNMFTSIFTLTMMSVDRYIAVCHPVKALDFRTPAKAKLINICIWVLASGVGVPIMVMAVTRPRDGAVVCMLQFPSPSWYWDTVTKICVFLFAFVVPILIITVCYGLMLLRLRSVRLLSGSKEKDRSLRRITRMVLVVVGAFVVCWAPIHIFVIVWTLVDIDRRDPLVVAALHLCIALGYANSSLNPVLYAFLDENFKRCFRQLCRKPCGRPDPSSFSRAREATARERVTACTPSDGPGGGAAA
T1 sequence (P41145 whole entry): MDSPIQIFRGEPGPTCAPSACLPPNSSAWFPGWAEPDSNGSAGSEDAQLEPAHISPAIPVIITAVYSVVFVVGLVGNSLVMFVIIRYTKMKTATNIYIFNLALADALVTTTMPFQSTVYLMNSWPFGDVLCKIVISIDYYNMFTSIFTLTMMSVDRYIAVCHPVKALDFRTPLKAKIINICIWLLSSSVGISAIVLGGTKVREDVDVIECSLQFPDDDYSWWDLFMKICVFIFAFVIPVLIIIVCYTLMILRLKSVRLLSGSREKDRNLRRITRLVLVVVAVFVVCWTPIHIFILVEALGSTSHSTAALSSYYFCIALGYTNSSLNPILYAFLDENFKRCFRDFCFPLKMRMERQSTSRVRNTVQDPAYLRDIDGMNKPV

For `N[C@H]1[C@H]2CCC[C@]1(c1cccc(O)c1)CCN2CCc1ccccc1` [1R,5R,9R-23, 3-((1R,5R,9R)-9-Amino-2-phenethyl-2-azabicyclo[3.3.1]nonan-5-yl)phenol], in assay [1], the IC50 was above 10 µM. Moreover, the EC50 in assay [2] was 26 nM and 26.1 nM; in assay [3] (setting [7]) it was 186 ± 12.5 nM; in assay [4], above 10 µM. Moreover, the maximal response (Emax) in assay [2] was 81%; in assay [3] (setting [6]), 46.6%.

As for `N[C@@H]1[C@H]2CCC[C@]1(c1cccc(O)c1)CCN2CCc1ccccc1` [1R,5R,9S-6, 3-((1R,5R,9S)-9-Amino-2-phenethyl-2-azabicyclo[3.3.1]nonan-5-yl)phenol], the IC50 in assay [1] is above 10 µM; in assay [5] it was above 10000 nM. Besides, the EC50 in assay [2] is 24 nM; in assay [3] (setting [7]), 690 ± 188 nM; in assay [4], above 10 µM. Besides, the results for the maximum response (Emax) in assay [2] and in assay [3] (setting [6]) were 91% and 39.4%, respectively.

In the case of `CN[C@@H]1[C@H]2CCC[C@]1(c1cccc(O)c1)CCN2CCc1ccccc1` [1R,5R,9S-10, 3-((1R,5R,9S)-9-(Methylamino)-2-phenethyl-2-azabicyclo[3.3.1]nonan-5-yl)phenol], in assay [2], the EC50 is 83 nM and 82.8 nM; the Emax is 28%.

With `ON=C1[C@H]2CCC[C@]1(c1cccc(O)c1)CCN2CCc1ccccc1` [1R,5R-17, (1R,5R)-5-(3-Hydroxyphenyl)-2-phenethyl-2-azabicyclo[3.3.1]nonan-9-one oxime], the IC50 in assay [1] was above 10 µM; in assay [5], 1080 ± 464 nM. Further, the EC50 in assay [2] is 22 nM and 22.1 nM; in assay [3] (setting [7]), 157 ± 72 nM; in assay [4] it was 0.146 ± 0.019 µM. Besides, the Emax in assay [2] is 99%; in assay [3] (setting [6]) it was 32.2%; in assay [4] it was 21.2%. Also, the “DOR Antagonist %Imax ± SEM” value in assay [5] was 66.5 ± 6.0%.

As for `N#CC=C1[C@H]2CCC[C@]1(c1cccc(O)c1)CCN2CCc1ccccc1` [1R,5R-33, 2-((1R,5R)-5-(3-hydroxyphenyl)-2-phenethyl-2-azabicyclo[3.3.1]nonan-9-ylidene)acetonitrile], the “MOR agonist potency relative to morphine (times more potent)” value in assay [2] was “about three times”. In addition, the concentration giving a half-maximal response (EC50) in assay [2] is 1.8 nM; in assay [3] (setting [7]), 8 nM and 8.1 nM; in assay [4] it was above 10 µM. The Emax was 100% in assay [2], 69% in assay [3] (setting [6]) and above 50% in assay [4]. Also, the “DOR Agonist %Emax ± SEM” value in assay [3] (CHO-K1 cells expressing human DOR, normalized to the forskolin control) was determined as 69.3 ± 6.0%.

Regarding `N#CC[C@H]1[C@H]2CCC[C@]1(c1cccc(O)c1)CCN2CCc1ccccc1` [1R,5S,9R-35, 2-((1R,5S,9R)-5-(3-hydroxyphenyl)-2-phenethyl-2-azabicyclo[3.3.1]nonan-9-yl)acetonitrile], the results for the IC50 in assay [1] and in assay [5] were above 10 µM and 94.5 ± 29.5 nM, respectively. Besides, the EC50 in assay [2] was 0.85 nM; in assay [3] (setting [7]) it was 4 nM and 4.3 nM; in assay [4] it was above 10 µM. The figures for the maximum response (Emax) in assay [2] and in assay [3] (setting [6]) were 99% and 35%, respectively. Moreover, in assay [5], the “DOR Antagonist %Imax ± SEM” value is listed as 35.1 ± 2.6%.

With `CNC[C@@H]1[C@H]2CCC[C@]1(c1cccc(O)c1)CCN2CCc1ccccc1` [1R,5S,9R-52, 3-((1R,5S,9R)-9-((Methylamino)methyl)-2-phenethyl-2-azabicyclo[3.3.1]nonan-5-yl)phenol], the EC50 is 43 nM and 43.3 nM in assay [2]; 502 ± 125 nM in assay [3] (setting [7]); 0.21 ± 0.092 µM in assay [4]. Besides, the results for the Emax in assay [2], in assay [3] (setting [6]) and in assay [4] were 94%, 62% and 57%, respectively.

Turning to `N#CC[C@@H]1[C@H]2CCC[C@]1(c1cccc(O)c1)CCN2CCc1ccccc1` [1R,5S,9S-41, 2-((1R,5S,9S)-5-(3-Hydroxyphenyl)-2-phenethyl-2-azabicyclo[3.3.1]nonan-9-yl)acetonitrile], in assay [2], the EC50 was above 10000 nM.

As to `CNC[C@H]1[C@H]2CCC[C@]1(c1cccc(O)c1)CCN2CCc1ccccc1` [1R,5S,9S-53, 3-((1R,5S,9S)-9-((Methylamino)methyl)-2-phenethyl-2-azabicyclo[3.3.1]nonan-5-yl)phenol], the concentration for half-maximal inhibition (IC50) was above 10 µM in assay [1] and 1630 ± 882 nM in assay [5]. The 50% effective concentration (EC50) in assay [2] was 16 nM and 15.9 nM; in assay [3] (setting [7]) it was 43.9 ± 22.2 nM; in assay [4], above 10 µM. In addition, the Emax in assay [2] was 97%; in assay [3] (setting [6]) it was 17.4%. In assay [5], the “DOR Antagonist %Imax ± SEM” value amounted to 109.3 ± 5.2%.

Compound `N#CC[C@H]1[C@@H]2CCC[C@@]1(c1cccc(O)c1)CCN2CCc1ccccc1` [1S,5R,9R-38, 2-((1S,5R,9R)-5-(3-Hydroxyphenyl)-2-phenethyl-2-azabicyclo[3.3.1]nonan-9-yl)acetonitrile] registered an IC50 in assay [1] of 0.044 ± 0.004 µM. Besides, the “KOR Antagonist %Imax ± SEM” value in assay [1] (CHO-K1 human KOR, versus EC90 of U50488H, Imax normalized to nor-BNI) came to 97 ± 0.1%. Besides, in assay [2], the “MOR agonist potency relative to morphine (times more potent)” value was “about twice”. The EC50 in assay [2] was 2.5 nM; in assay [3] (setting [7]), 55 ± 3.9 nM; in assay [4], above 10 µM. Besides, the Emax was 89.6% in assay [2] and 46.8% in assay [3] (setting [6]).

As for `CNC[C@@H]1[C@@H]2CCC[C@@]1(c1cccc(O)c1)CCN2CCc1ccccc1` [1S,5R,9R-47, 3-((1S,5R,9R)-9-((Methylamino)methyl)-2-phenethyl-2-azabicyclo[3.3.1]nonan-5-yl)phenol], the EC50 in assay [2] is 3.7 nM and 3.66 nM; in assay [3] (setting [7]), 416 ± 21.1 nM; in assay [4] it was 0.0957 ± 0.017 µM. Besides, the maximal response (Emax) is 102% in assay [2], 84.7% in assay [3] (setting [6]) and 93.4% in assay [4].

Compound `N#CC[C@@H]1[C@@H]2CCC[C@@]1(c1cccc(O)c1)CCN2CCc1ccccc1` [1S,5R,9S-34, 2-((1S,5R,9S)-5-(3-Hydroxyphenyl)-2-phenethyl-2-azabicyclo[3.3.1]nonan-9-yl)acetonitrile] yielded an IC50 in assay [1] above 10 µM. Moreover, the EC50 in assay [2] was 27 nM and 27.3 nM; in assay [3] (setting [7]), 575 ± 127 nM; in assay [4] it was above 10 µM. The Emax is 101% in assay [2] and 61.5% in assay [3] (setting [6]).

`N[C@H]1[C@@H]2CCC[C@@]1(c1cccc(O)c1)CCN2CCc1ccccc1` [1S,5S,9R-3, 3-((1S,5S,9R)-9-Amino-2-phenethyl-2-azabicyclo[3.3.1]nonan-5-yl)phenol]: the EC50 is above 10000 nM in assay [2] and above 10 µM in assay [4].

As for `CN[C@H]1[C@@H]2CCC[C@@]1(c1cccc(O)c1)CCN2CCc1ccccc1` [1S,5S,9R-8, 3-((1S,5S,9R)-9-(Methylamino)-2-phenethyl-2-azabicyclo[3.3.1]nonan-5-yl)phenol], the figures for the EC50 in assay [2] and in assay [4] were above 10000 nM and above 10 µM, respectively.

Take `N[C@@H]1[C@@H]2CCC[C@@]1(c1cccc(O)c1)CCN2CCc1ccccc1` [1S,5S,9S-22, 3-((1S,5S,9S)-9-Amino-2-phenethyl-2-azabicyclo[3.3.1]nonan-5-yl)phenol]: in assay [2], the EC50 is 94 nM and 94.1 nM; the Emax was found to be 53%.

`ON=C1[C@@H]2CCC[C@@]1(c1cccc(O)c1)CCN2CCc1ccccc1` [1S,5S-15, (1S,5S)-5-(3-Hydroxyphenyl)-2-phenethyl-2-azabicyclo[3.3.1]nonan-9-one oxime]: in assay [2], the response was half-maximal at 229 nM (EC50) and the Emax worked out at 91%. In assay [4], this compound yielded an EC50 above 10 µM.

In assay [1], `N#CC=C1[C@@H]2CCC[C@@]1(c1cccc(O)c1)CCN2CCc1ccccc1` [1S,5S-28, 2-((1S,5S)-5-(3-Hydroxyphenyl)-2-phenethyl-2-azabicyclo[3.3.1]nonan-9-ylidene)acetonitrile] yielded an IC50 above 10 µM. Besides, the EC50 in assay [2] was 27 nM and 27.2 nM; in assay [3] (setting [7]) it was 1520 ± 385 nM; in assay [4], above 10 µM. For the same compound, the Emax in assay [2] was 101%; in assay [3] (setting [6]) it was 51.4%.

`Oc1ccc2c3c1O[C@H]1c4[nH]c5ccccc5c4C[C@@]4(O)[C@@H](C2)N(CC2CC2)CC[C@]314` [Naltrindole, reference compound]: the “DOR Antagonist %Imax ± SEM” value in assay [5] amounted to 106.8 ± 4.8%.
